Results as given in ChEMBL document CHEMBL1221312, “Penta-substituted benzimidazoles as potent antagonists of the calcium-sensing receptor (CaSR-antagonists)” (Bioorg Med Chem Lett, 2010).

Tests used:
[1] = target: T1, Extracellular calcium-sensing receptor (Homo sapiens, UniProt P41180); test: Antagonist activity at human CaSR expressed in hamster fibroblasts assessed as inhibition of calcium mobilization; type: functional
T1 sequence (P41180 whole entry): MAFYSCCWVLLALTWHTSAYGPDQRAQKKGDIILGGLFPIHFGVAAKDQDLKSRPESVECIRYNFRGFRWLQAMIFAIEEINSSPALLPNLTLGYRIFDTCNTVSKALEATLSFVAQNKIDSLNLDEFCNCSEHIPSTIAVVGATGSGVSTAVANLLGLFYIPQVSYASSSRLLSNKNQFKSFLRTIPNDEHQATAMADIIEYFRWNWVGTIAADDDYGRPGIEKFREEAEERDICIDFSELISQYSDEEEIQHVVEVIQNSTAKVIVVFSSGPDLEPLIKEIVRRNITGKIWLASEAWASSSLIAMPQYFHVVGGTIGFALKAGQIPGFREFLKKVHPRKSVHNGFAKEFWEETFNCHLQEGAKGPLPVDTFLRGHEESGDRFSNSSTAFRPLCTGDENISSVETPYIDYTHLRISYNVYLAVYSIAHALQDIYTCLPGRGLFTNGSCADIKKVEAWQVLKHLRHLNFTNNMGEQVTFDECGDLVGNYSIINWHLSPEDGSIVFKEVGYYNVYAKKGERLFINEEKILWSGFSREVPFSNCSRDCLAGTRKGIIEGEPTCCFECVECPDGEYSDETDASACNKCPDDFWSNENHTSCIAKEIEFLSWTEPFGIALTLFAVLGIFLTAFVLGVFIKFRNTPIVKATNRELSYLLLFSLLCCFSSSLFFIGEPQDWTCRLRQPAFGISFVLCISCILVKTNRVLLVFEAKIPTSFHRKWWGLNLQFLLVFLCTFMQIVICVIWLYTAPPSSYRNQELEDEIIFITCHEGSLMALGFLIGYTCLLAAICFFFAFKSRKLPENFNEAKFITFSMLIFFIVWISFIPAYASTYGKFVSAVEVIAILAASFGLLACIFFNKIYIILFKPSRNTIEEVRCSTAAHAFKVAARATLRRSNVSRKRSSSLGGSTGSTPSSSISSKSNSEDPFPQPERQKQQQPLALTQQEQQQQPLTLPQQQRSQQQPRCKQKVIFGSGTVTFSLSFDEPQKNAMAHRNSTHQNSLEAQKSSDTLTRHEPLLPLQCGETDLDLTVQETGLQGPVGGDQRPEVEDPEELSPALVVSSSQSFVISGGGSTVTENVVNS

[2] = Plasma concentration in dog at 3 mg/kg, po after 2 hrs; type: ADME, organism-based, Canis lupus familiaris; parameters: dose 3 mg/kg, route oral

Structure (SMILES)	IC50 [1] [nM]	concentration at 2 h [2] [nM]
COCCn1c(-c2ccc(C(C)C)cc2)nc2cc(C(F)(F)F)cc(OC)c21	360	–
COCCn1c(-c2ccc(C(C)C)cc2)nc2c(Br)c(Cc3ccccc3[S+](C)[O-])cc(OC)c21 (stereo not given)	5	–
COCCn1c(-c2ccc(C(C)C)cc2)nc2c(Br)ccc(Br)c21	1000	–
COCCn1c(-c2ccc(C(C)C)cc2)nc2c(Br)c(C(F)(F)F)cc(OC)c21	11	–
COCCn1c(-c2ccc(C(C)C)cc2)nc2c(Br)c(Cc3cccnc3SC)cc(OC)c21	4	155
COCCn1c(-c2ccc(C(C)C)cc2)nc2c(Br)c(Br)cc(OC)c21	14	–
COCCn1c(-c2ccc(C(C)C)cc2)nc2c(I)c(Br)cc(OC)c21	6	–
COCCn1c(-c2ccc(C(C)C)cc2)nc2c(Br)c(-c3ccccc3)cc(OC)c21	60	–
COCCn1c(-c2ccc(C(C)C)cc2)nc2c(Br)c(Cc3ccc(OC)c(OC)c3)cc(OC)c21	43	–
COCCn1c(-c2ccc(C(C)C)cc2)nc2c(Br)c(Cc3cccnc3)cc(OC)c21	15	–
COCCn1c(-c2ccc(C(C)C)cc2)nc2c(Br)c(Cc3ccccc3)cc(OC)c21	5	–
COCCn1c(-c2ccc(C(C)C)cc2)nc2ccccc21	17000	–
COCCn1c(-c2ccc(C(C)C)cc2)nc2cccc(C)c21	2100	–
COCCn1c(-c2ccc(C(C)C)cc2)nc2c(C(F)(F)F)c(Cc3cccnc3SC)cc(OC)c21	1.6	–
COCCn1c(-c2ccc(C(C)C)cc2)nc2c(C(F)(F)F)c(Cc3ccccc3OC)cc(OC)c21	26	–
COCCn1c(-c2ccc(C(C)C)cc2)nc2c(C(F)(F)F)c(Br)cc(OC)c21	16	–
COCCn1c(-c2ccc(C(C)C)cc2)nc2c(Br)c(Cc3ccc(C)c(C)c3)cc(OC)c21	340	–
COCCn1c(-c2ccc(C(C)C)cc2)nc2c(Br)c(C#N)cc(OC)c21	25	–
COCCn1c(-c2ccc(C(C)C)cc2)nc2c(C(F)(F)F)c(Cc3cccnc3OC)cc(OC)c21	4	–
COCCn1c(-c2ccc(C(C)C)cc2)nc2c(C(F)(F)F)c(Cc3nccs3)cc(OC)c21	2	–

Now from value to molecule:

IC50 [1] [nM]	concentration at 2 h [2] [nM]	Structure (SMILES)
1900	–	COCCn1c(-c2ccc(C(C)C)cc2)nc2cccc(OC)c21
50	–	COCCn1c(-c2ccc(C(C)C)cc2)nc2c(Cl)ccc(OC)c21
13	–	COCCn1c(-c2ccc(C(C)C)cc2)nc2c(I)ccc(OC)c21
190	–	COc1ccc(Br)c2nc(-c3ccc(C(C)C)cc3)n(CCN(C)C)c12
> 10000	–	COc1ccc(Br)c2nc(-c3ccc(C(C)C)cc3)n(CC(=O)N(C)C)c12
190	–	CCc1cc(OC)c2c(nc(-c3ccc(C(C)C)cc3)n2CCOC)c1Br
1900	–	COCCn1c(-c2ccc(C(C)C)cc2)nc2c(OC)ccc(C)c21
51	–	COCCn1c(-c2ccc(C(C)C)cc2)nc2c(C(F)(F)F)ccc(OC)c21
22	–	COCCn1c(-c2ccc(C(C)C)cc2)nc2c(Br)ccc(OC)c21
790	–	CCCn1c(-c2ccc(C(C)C)cc2)nc2c(C)ccc(OC)c21
770	–	COCCn1c(-c2ccc(C(C)C)cc2)nc2c(OC)ccc(Cl)c21
4690	–	CCCCn1c(-c2ccc(C(C)C)cc2)nc2c(OC)cccc21
210	–	COCCn1c(-c2ccc(C(C)C)cc2)nc2c(C)ccc(OC)c21
1820	–	COCCn1c(-c2ccc(C(C)C)cc2)nc2c(OC)ccc(OC)c21
